# Patent US20040014047A1, “Antisense modulation of LIM domain kinase 1 expression” (Isis Pharmaceuticals Inc., priority 2002, published 2004)
# Strand notation (5' to 3'): a small letter for the sugar, then the base; units joined by * are phosphorothioate-linked, units joined directly phosphodiester-linked; [ ] holds rarer units or linkages, { } end groups; capitals alone tell only the bases. e = 2'-O-(2-methoxyethyl) (MOE); [5mC] = 5-methylcytosine; d = 2'-deoxy (DNA)
# Test system: human LIM domain kinase 1 mRNA
# Assay: Antisense inhibition of human LIM domain kinase 1 mRNA levels, quantitative real-time PCR, A549 cells (screen)
# Assay type: cell-based
# Conditions: quantitative real-time PCR, averages from two experiments, screening concentration not given (50 nM to 300 nM used herein)
# Method: When cells reached 70% confluency, they were treated with oligonucleotide. […] Cells were harvested 16-24 hours after oligonucleotide treatment.
# Vacuum was applied for 1 minute.
# PCR reagents were obtained from Invitrogen Corporation, (Carlsbad, Calif.).
# Total RNA is quantified using RiboGreenTM RNA quantification reagent from Molecular Probes.
# Probes and primers to human LIM domain kinase 1 were designed to hybridize to a human LIM domain kinase 1 sequence, using published sequence information (GenBank accession number D26309.1, incorporated herein as SEQ ID NO:4). For human LIM domain kinase 1 the PCR primers were: forward primer: […] (SEQ ID NO: 5) reverse primer: […] (SEQ ID NO: 6) and the PCR probe was: FAM-[…]-TAMRA (SEQ ID NO: 7) where FAM is the fluorescent dye and TAMRA is the quencher dye.
# All cytidine residues are 5-methylcytidines. […] Data are averages from two experiments in which A549 cells were treated with the oligonucleotides of the present invention. […] If present, “N.D.” indicates “no data”.
row,Substance,% INHIB (inhibition of human LIM domain kinase 1 mRNA levels)
1,206202 (antisense eG*eT*e[5mC]*eT*e[5mC]*dG*dG*dT*dG*dG*dA*dT*dG*dA*dT*eG*eT*eT*e[5mC]*eA) [compound 206202],69%
2,206203 (antisense eT*eT*eG*eT*eG*dG*dG*dA*dG*dT*dT*dG*dA*dG*dG*eT*e[5mC]*eT*e[5mC]*eG) [compound 206203],55%
3,206204 (antisense e[5mC]*eA*eT*eT*e[5mC]*dT*dT*dG*dT*dT*d[5mC]*dT*d[5mC]*dG*d[5mC]*eG*eG*eA*e[5mC]*e[5mC]) [compound 206204],81%
4,206205 (antisense eA*eA*eA*eG*eG*dA*dT*dG*dG*d[5mC]*d[5mC]*dT*d[5mC]*dT*dT*e[5mC]*eT*e[5mC]*eG*eG) [compound 206205],74%
5,206206 (antisense e[5mC]*eG*e[5mC]*e[5mC]*eG*dG*dT*dA*dG*dG*dT*d[5mC]*dT*d[5mC]*d[5mC]*e[5mC]*eA*eG*eA*eA) [compound 206206],28%
6,206207 (antisense eG*eT*eG*eG*e[5mC]*d[5mC]*d[5mC]*dT*dG*dG*d[5mC]*dT*d[5mC]*dA*dG*eT*e[5mC]*eG*eG*eG) [compound 206207],80%
7,206208 (antisense e[5mC]*e[5mC]*eA*e[5mC]*e[5mC]*dT*d[5mC]*d[5mC]*d[5mC]*dG*d[5mC]*dG*dG*dA*dG*eG*eA*eA*eT*e[5mC]) [compound 206208],79%
8,206209 (antisense e[5mC]*eT*e[5mC]*eT*eG*dG*dG*d[5mC]*d[5mC]*dA*d[5mC]*dG*dG*d[5mC]*dA*eG*eA*eG*eA*eG) [compound 206209],80%
9,206210 (antisense e[5mC]*e[5mC]*eT*e[5mC]*e[5mC]*dA*dG*dG*dG*dA*dG*d[5mC]*dT*dA*dT*eG*eG*eA*e[5mC]*e[5mC]) [compound 206210],83%
10,206211 (antisense eT*e[5mC]*eT*eG*e[5mC]*d[5mC]*d[5mC]*dT*dG*dA*dT*dG*dT*dG*d[5mC]*eG*e[5mC]*e[5mC]*e[5mC]*eT) [compound 206211],59%
11,206213 (antisense e[5mC]*e[5mC]*e[5mC]*eT*eG*dA*dG*dG*d[5mC]*dT*dT*dG*dG*dT*dA*e[5mC]*e[5mC]*eT*eG*e[5mC]) [compound 206213],14%
12,206215 (antisense eG*e[5mC]*eA*eG*e[5mC]*dT*dG*d[5mC]*dT*dG*d[5mC]*dT*dG*d[5mC]*dA*eG*e[5mC]*e[5mC]*eG*eT) [compound 206215],75%
13,206216 (antisense eT*e[5mC]*eA*e[5mC]*eA*dG*dT*dT*dT*dT*dA*dA*dT*dA*d[5mC]*eT*eT*e[5mC]*e[5mC]*eT) [compound 206216],0%
14,206217 (antisense eA*eA*eG*e[5mC]*eT*dT*d[5mC]*dA*d[5mC]*dA*dG*dT*dT*dT*dT*eA*eA*eT*eA*e[5mC]) [compound 206217],68%
15,206218 (antisense eT*eG*eA*eG*eA*dA*dA*dG*d[5mC]*dT*dT*d[5mC]*dA*d[5mC]*dA*eG*eT*eT*eT*eT) [compound 206218],43%
16,206220 (antisense e[5mC]*eA*eA*eA*eG*dT*dG*d[5mC]*dA*d[5mC]*dT*dG*dA*dG*dA*eA*eA*eG*e[5mC]*eT) [compound 206220],59%

row,Substance,% INHIB (inhibition of human LIM domain kinase 1 mRNA levels)
1,206221 (antisense eT*e[5mC]*e[5mC]*e[5mC]*eA*d[5mC]*d[5mC]*dT*d[5mC]*d[5mC]*d[5mC]*dT*dA*dA*dG*eT*e[5mC]*eA*eT*eG) [compound 206221],17%
2,206222 (antisense eG*eG*eT*eG*eG*dG*dT*d[5mC]*d[5mC]*d[5mC]*dA*d[5mC]*d[5mC]*dT*d[5mC]*e[5mC]*e[5mC]*eT*eA*eA) [compound 206222],63%
3,206223 (antisense eG*eG*eT*eG*eT*dG*dT*d[5mC]*dA*d[5mC]*d[5mC]*dT*dT*dG*dA*eT*eA*eG*e[5mC]*e[5mC]) [compound 206223],62%
4,206224 (antisense eG*e[5mC]*eT*eG*e[5mC]*dT*dG*d[5mC]*dA*dG*d[5mC]*d[5mC]*dG*dT*dA*eT*eG*eA*eA*eA) [compound 206224],66%
5,206225 (antisense eG*eG*eA*eG*eT*dG*dA*dA*dA*dG*d[5mC]*dA*d[5mC]*d[5mC]*d[5mC]*eA*eG*e[5mC]*eT*eG) [compound 206225],74%
6,206226 (antisense eT*eA*eG*eG*eT*d[5mC]*d[5mC]*d[5mC]*dA*d[5mC]*dA*dG*d[5mC]*d[5mC]*d[5mC]*e[5mC]*eT*eG*eA*eG) [compound 206226],9%
7,206227 (antisense e[5mC]*eT*e[5mC]*eA*eG*dA*d[5mC]*d[5mC]*d[5mC]*dT*dT*dG*dA*dG*dT*eT*eA*e[5mC]*eT*eG) [compound 206227],68%
8,206228 (antisense eA*e[5mC]*eT*eG*e[5mC]*d[5mC]*dT*d[5mC]*dT*d[5mC]*dG*dG*dG*dT*dT*e[5mC]*eA*eA*eG*e[5mC]) [compound 206228],69%
9,206229 (antisense eG*eT*e[5mC]*eA*e[5mC]*dA*dA*d[5mC]*dA*d[5mC]*d[5mC]*dT*dG*d[5mC]*dA*eG*eG*eA*eG*eA) [compound 206229],66%
10,206230 (antisense e[5mC]*e[5mC]*eA*eG*eG*dT*dG*dA*dG*dT*dG*dT*dG*d[5mC]*dA*eA*eG*eG*e[5mC]*eA) [compound 206230],74%
11,206231 (antisense eG*e[5mC]*eA*eG*eT*dG*d[5mC]*d[5mC]*d[5mC]*dG*d[5mC]*dT*dG*d[5mC]*dA*eA*eG*eA*eG*e[5mC]) [compound 206231],76%
12,206232 (antisense eA*eT*eG*e[5mC]*eT*dG*d[5mC]*dA*dG*d[5mC]*dT*d[5mC]*d[5mC]*dT*d[5mC]*e[5mC]*eT*eG*eG*eG) [compound 206232],81%
13,206233 (antisense eG*eG*eT*e[5mC]*e[5mC]*dT*dT*dG*d[5mC]*dG*d[5mC]*dT*dG*dG*dG*eA*eG*eG*e[5mC]*e[5mC]) [compound 206233],80%
14,206234 (antisense e[5mC]*eA*eT*eT*e[5mC]*dT*dT*dG*dT*dT*d[5mC]*dT*dG*dG*dG*eA*eA*eG*eG*eT) [compound 206234],61%
15,206235 (antisense eT*eA*eG*e[5mC]*eT*dG*dG*dG*dA*dT*dT*dA*d[5mC]*dA*dG*eT*eA*e[5mC]*eT*eA) [compound 206235],53%
16,206236 (antisense e[5mC]*eT*eG*eG*eA*d[5mC]*d[5mC]*dT*dA*d[5mC]*d[5mC]*dT*d[5mC]*dG*d[5mC]*eA*e[5mC]*eA*eG*eG) [compound 206236],43%
